Assay results as given in the kinase profiling compilation of Christmann-Franck et al. (2016).

Assays:
Experiment in all cases: radiometric filter-binding kinase assay
[1] = system: AKT1 (human), P31749 [S473D]
[2] = target: MAP3K11 (human) (UniProt Q16584)
[3] = target: TAOK1 (human) (UniProt Q7L7X3)
[4] = target: YES1 (human) (UniProt P07947)
[5] = target: FLT1 (human) (UniProt P17948)
[6] = target: MAPK9 (human) (UniProt P45984)
[7] = target: AURKA (human) (UniProt O14965)
[8] = system: RPS6KB1 (human), P23443 [T412E]
[9] = target: EPHB2 (human) (UniProt P29323)
[10] = target: MAPKAPK5 (human) (UniProt Q8IW41)
Sequence of MAPKAPK5 (human) (Q8IW41 whole entry, looked up): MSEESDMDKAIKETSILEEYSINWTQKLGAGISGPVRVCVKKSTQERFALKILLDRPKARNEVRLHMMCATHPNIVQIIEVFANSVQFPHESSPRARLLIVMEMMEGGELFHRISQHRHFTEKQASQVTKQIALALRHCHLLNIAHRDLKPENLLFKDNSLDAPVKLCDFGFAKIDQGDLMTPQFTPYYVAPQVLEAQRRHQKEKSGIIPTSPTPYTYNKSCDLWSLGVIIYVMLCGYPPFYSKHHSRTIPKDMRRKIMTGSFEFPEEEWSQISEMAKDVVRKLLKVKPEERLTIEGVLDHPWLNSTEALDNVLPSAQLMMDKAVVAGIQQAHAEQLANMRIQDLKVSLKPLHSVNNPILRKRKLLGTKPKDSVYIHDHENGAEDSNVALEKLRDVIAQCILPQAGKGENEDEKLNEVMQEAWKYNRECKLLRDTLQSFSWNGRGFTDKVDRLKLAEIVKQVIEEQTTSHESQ

[11] = target: INSR (human) (UniProt P06213)
[12] = target: SYK (human) (UniProt P43405)
[13] = target: HIPK1 (human) (UniProt Q86Z02)
Sequence of HIPK1 (human) (Q86Z02 whole entry, looked up): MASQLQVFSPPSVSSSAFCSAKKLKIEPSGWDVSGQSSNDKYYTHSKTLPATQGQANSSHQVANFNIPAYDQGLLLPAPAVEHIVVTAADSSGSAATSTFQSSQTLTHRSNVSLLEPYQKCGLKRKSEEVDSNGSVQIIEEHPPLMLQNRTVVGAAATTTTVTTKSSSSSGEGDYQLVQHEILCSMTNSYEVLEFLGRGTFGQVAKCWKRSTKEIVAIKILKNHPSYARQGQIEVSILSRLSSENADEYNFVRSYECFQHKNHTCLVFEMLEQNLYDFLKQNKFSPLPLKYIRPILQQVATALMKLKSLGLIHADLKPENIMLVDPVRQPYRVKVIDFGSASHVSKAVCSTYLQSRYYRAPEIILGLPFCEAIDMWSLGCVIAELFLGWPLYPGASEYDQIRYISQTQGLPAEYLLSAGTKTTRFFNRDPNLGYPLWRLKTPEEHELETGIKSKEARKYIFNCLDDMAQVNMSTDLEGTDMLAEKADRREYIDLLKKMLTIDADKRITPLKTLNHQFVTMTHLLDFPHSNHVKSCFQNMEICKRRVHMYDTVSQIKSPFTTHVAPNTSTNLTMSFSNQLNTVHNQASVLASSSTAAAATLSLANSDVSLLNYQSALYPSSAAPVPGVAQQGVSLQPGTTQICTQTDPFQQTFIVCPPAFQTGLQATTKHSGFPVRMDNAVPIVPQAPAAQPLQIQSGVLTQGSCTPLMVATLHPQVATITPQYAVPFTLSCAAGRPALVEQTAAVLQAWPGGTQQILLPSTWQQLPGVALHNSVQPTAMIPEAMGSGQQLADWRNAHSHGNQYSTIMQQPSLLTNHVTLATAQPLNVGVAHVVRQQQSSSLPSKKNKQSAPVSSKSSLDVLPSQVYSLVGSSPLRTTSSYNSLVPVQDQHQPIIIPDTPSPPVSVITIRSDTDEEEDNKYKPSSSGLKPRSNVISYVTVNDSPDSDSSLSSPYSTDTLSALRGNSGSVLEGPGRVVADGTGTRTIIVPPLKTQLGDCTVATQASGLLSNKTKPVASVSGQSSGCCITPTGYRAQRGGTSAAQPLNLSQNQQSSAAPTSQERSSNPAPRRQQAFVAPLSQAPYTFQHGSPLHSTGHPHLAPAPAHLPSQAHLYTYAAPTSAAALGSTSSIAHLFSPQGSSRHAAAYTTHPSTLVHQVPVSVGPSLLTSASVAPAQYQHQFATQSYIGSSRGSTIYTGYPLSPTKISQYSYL

[14] = target: BRSK1 (human) (UniProt Q8TDC3)
[15] = target: MAP3K1 (human) (UniProt Q13233)
[16] = target: HIPK2 (human) (UniProt Q9H2X6)
[17] = target: MAPK11 (human) (UniProt Q15759)
[18] = target: BTK (human) (UniProt Q06187)
[19] = target: EPHA2 (human) (UniProt P29317)
Sequence of EPHA2 (human) (P29317 whole entry, looked up): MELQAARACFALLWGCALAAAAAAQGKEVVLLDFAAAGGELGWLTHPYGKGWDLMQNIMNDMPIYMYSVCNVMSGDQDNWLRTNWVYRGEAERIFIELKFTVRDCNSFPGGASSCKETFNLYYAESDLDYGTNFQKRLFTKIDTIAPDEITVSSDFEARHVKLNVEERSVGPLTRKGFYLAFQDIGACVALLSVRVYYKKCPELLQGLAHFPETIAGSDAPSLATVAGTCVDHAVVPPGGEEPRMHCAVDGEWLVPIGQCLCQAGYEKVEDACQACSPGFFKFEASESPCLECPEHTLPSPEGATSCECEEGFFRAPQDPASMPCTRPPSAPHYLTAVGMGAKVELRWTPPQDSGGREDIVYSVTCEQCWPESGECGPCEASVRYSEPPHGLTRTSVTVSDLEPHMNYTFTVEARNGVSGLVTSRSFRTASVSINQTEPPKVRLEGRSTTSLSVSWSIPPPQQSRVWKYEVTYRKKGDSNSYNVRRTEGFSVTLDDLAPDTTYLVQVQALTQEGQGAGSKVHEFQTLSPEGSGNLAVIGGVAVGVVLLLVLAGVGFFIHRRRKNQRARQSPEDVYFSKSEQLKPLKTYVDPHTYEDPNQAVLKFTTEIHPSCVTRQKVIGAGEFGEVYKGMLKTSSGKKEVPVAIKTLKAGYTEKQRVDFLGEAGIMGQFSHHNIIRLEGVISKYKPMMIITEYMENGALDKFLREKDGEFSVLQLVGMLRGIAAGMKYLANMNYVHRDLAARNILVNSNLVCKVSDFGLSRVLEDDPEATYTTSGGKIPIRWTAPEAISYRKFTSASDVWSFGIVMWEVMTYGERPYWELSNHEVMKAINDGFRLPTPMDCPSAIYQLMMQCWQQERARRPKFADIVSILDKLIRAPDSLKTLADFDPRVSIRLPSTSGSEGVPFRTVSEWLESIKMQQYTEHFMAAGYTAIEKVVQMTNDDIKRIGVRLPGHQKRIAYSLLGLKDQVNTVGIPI

[20] = target: DYRK3 (human) (UniProt O43781)
[21] = target: BRSK2 (human) (UniProt Q8IWQ3)
[22] = target: PRKCA (human) (UniProt P17252)
[23] = target: GCK (human) (UniProt Q12851)
Sequence of GCK (human) (Q12851 whole entry, looked up): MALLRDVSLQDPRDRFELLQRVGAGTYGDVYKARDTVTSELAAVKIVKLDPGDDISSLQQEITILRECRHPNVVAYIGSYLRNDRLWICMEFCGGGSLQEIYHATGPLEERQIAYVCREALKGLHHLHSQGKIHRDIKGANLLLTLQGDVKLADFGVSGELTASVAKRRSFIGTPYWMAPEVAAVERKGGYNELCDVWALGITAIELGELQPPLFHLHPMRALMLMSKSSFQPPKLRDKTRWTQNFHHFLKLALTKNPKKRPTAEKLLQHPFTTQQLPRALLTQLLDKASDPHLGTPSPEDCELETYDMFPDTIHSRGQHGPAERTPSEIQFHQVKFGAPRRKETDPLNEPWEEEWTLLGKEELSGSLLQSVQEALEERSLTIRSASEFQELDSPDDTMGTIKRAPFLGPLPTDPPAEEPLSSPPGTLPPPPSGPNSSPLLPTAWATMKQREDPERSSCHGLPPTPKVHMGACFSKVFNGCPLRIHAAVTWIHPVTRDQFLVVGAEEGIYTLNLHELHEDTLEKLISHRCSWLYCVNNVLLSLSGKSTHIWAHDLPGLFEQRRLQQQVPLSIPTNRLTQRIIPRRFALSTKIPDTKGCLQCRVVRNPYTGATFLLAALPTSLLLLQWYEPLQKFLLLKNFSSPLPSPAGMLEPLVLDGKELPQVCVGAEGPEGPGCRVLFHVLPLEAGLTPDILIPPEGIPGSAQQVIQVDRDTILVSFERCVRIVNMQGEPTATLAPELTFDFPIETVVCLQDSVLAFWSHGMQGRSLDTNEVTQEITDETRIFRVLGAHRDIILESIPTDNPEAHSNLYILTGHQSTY

[24] = target: STK3 (human) (UniProt Q13188)
[25] = target: TBK1 (human) (UniProt Q9UHD2)
[26] = target: DYRK2 (human) (UniProt Q92630)
Sequence of DYRK2 (human) (Q92630 whole entry, looked up): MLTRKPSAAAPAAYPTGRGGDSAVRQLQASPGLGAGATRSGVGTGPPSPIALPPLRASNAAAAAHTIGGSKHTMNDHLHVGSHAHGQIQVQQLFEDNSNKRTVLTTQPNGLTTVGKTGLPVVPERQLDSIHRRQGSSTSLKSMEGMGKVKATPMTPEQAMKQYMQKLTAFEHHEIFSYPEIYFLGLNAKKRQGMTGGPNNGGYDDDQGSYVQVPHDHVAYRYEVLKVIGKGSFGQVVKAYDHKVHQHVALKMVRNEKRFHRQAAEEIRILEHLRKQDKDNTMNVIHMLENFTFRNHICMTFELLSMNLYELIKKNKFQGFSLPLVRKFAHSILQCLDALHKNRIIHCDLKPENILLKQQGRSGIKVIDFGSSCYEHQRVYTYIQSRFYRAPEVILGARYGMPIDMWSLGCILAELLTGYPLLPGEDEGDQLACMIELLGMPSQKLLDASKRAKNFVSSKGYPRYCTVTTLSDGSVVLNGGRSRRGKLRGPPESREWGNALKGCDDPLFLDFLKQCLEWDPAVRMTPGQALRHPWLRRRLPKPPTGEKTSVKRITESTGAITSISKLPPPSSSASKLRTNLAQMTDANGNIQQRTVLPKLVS

[27] = target: MAP3K5 (human) (UniProt Q99683)
[28] = target: MAPK8 (human) (UniProt P45983)
[29] = target: MARK3 (human) (UniProt P27448)
[30] = target: PIM1 (human) (UniProt P11309)
[31] = target: CaMK1 (human) (UniProt Q14012)
[32] = target: MAP2K1 (human) (UniProt Q02750)
[33] = target: MAPK10 (human) (UniProt P53779)
Sequence of MAPK10 (human) (P53779 whole entry, looked up): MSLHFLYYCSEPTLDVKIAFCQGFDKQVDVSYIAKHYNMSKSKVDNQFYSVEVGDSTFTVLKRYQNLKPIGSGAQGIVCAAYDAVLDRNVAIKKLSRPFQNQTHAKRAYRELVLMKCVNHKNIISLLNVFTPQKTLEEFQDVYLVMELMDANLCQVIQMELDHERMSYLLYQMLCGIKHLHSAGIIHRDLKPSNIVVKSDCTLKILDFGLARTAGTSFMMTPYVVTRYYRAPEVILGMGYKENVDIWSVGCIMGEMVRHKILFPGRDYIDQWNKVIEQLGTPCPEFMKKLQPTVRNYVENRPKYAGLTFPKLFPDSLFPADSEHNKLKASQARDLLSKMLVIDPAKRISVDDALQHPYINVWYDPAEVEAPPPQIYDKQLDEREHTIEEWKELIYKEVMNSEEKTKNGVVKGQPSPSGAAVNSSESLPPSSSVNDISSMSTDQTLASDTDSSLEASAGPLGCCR

[34] = target: JAK2 JH1 JH2 (human) (UniProt O60674)
[35] = target: EPHB1 (human) (UniProt P54762)
[36] = target: EPHB4 (human) (UniProt P54760)

Sequence of AURKA (human) (O14965 whole entry, looked up): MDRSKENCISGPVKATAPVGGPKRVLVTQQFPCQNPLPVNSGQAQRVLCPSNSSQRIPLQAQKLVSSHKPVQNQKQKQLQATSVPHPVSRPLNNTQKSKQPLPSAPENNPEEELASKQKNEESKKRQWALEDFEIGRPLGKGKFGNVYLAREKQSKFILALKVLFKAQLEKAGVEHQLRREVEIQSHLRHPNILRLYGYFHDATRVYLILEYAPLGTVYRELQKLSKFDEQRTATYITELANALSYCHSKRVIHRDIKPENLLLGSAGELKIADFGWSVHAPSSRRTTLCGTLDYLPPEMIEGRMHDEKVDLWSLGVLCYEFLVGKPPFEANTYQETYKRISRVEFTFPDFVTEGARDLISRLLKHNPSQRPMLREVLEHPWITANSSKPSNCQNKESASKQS

CCCCCc1ccc(/C=C/[C@H](O)[C@@H](CO)NC)cc1
residual activity ([1]; compound 0.1 µM): 99%
residual activity ([1]; compound 1.0 µM): 97%
residual activity ([2]; compound 0.1 µM): 102%
residual activity ([2]; compound 1.0 µM): 106%
residual activity ([2]; compound 10.0 µM): 109%
residual activity ([3]; compound 0.1 µM): 102%
residual activity ([3]; compound 1.0 µM): 108%
residual activity ([3]; compound 10.0 µM): 91%
residual activity ([4]; compound 0.1 µM): 123%
residual activity ([4]; compound 1.0 µM): 100%
residual activity ([4]; compound 10.0 µM): 109%
residual activity ([5]; compound 0.1 µM): 95%
residual activity ([5]; compound 1.0 µM): 81%
residual activity ([5]; compound 10.0 µM): 83%
residual activity ([6]; compound 0.1 µM): 85%
residual activity ([6]; compound 1.0 µM): 90%
residual activity ([6]; compound 10.0 µM): 88%
residual activity ([7]; compound 0.1 µM): 116%
residual activity ([7]; compound 1.0 µM): 105%
residual activity ([7]; compound 10.0 µM): 92%
residual activity ([8]; compound 0.1 µM): 114%
residual activity ([8]; compound 1.0 µM): 108%
residual activity ([8]; compound 10.0 µM): 100%
residual activity ([9]; compound 0.1 µM): 115%
residual activity ([9]; compound 1.0 µM): 105%
residual activity ([9]; compound 10.0 µM): 108%
residual activity ([10]; compound 0.1 µM): 89%
residual activity ([10]; compound 1.0 µM): 99%
residual activity ([10]; compound 10.0 µM): 90%
residual activity ([11]; compound 0.1 µM): 107%
residual activity ([11]; compound 10.0 µM): 99%
residual activity ([12]; compound 0.1 µM): 134%
residual activity ([12]; compound 1.0 µM): 105%
residual activity ([12]; compound 10.0 µM): 92%
residual activity ([13]; compound 0.1 µM): 92%
residual activity ([13]; compound 1.0 µM): 112%
residual activity ([13]; compound 10.0 µM): 94%
residual activity ([14]; compound 0.1 µM): 114%
residual activity ([14]; compound 1.0 µM): 111%
residual activity ([14]; compound 10.0 µM): 97%
residual activity ([15]; compound 0.1 µM): 93%
residual activity ([15]; compound 1.0 µM): 99%
residual activity ([15]; compound 10.0 µM): 89%
residual activity ([16]; compound 0.1 µM): 108%
residual activity ([16]; compound 1.0 µM): 106%
residual activity ([16]; compound 10.0 µM): 106%
residual activity ([17]; compound 0.1 µM): 99%
residual activity ([17]; compound 1.0 µM): 106%
residual activity ([17]; compound 10.0 µM): 95%
residual activity ([18]; compound 1.0 µM): 103%
residual activity ([18]; compound 10.0 µM): 103%
residual activity ([19]; compound 0.1 µM): 103%
residual activity ([19]; compound 1.0 µM): 91%
residual activity ([19]; compound 10.0 µM): 91%
residual activity ([20]; compound 0.1 µM): 93%
residual activity ([20]; compound 1.0 µM): 98%
residual activity ([20]; compound 10.0 µM): 93%
residual activity ([21]; compound 0.1 µM): 130%
residual activity ([21]; compound 1.0 µM): 108%
residual activity ([21]; compound 10.0 µM): 108%
residual activity ([22]; compound 0.1 µM): 96%
residual activity ([22]; compound 1.0 µM): 88%
residual activity ([22]; compound 10.0 µM): 89%
residual activity ([23]; compound 0.1 µM): 86%
residual activity ([23]; compound 1.0 µM): 72%
residual activity ([23]; compound 10.0 µM): 71%
residual activity ([24]; compound 0.1 µM): 96%
residual activity ([24]; compound 1.0 µM): 90%
residual activity ([24]; compound 10.0 µM): 94%
residual activity ([25]; compound 0.1 µM): 111%
residual activity ([25]; compound 10.0 µM): 93%
residual activity ([26]; compound 0.1 µM): 116%
residual activity ([26]; compound 1.0 µM): 124%
residual activity ([26]; compound 10.0 µM): 119%
residual activity ([27]; compound 0.1 µM): 115%
residual activity ([27]; compound 1.0 µM): 99%
residual activity ([27]; compound 10.0 µM): 94%
residual activity ([28]; compound 0.1 µM): 98%
residual activity ([28]; compound 1.0 µM): 94%
residual activity ([29]; compound 0.1 µM): 101%
residual activity ([29]; compound 1.0 µM): 107%
residual activity ([29]; compound 10.0 µM): 105%
residual activity ([30]; compound 0.1 µM): 100%
residual activity ([30]; compound 1.0 µM): 95%
residual activity ([30]; compound 10.0 µM): 95%
residual activity ([31]; compound 0.1 µM): 106%
residual activity ([31]; compound 1.0 µM): 101%
residual activity ([31]; compound 10.0 µM): 89%
residual activity ([32]; compound 0.1 µM): 97%
residual activity ([32]; compound 1.0 µM): 102%
residual activity ([32]; compound 10.0 µM): 97%
residual activity ([33]; compound 0.1 µM): 93%
residual activity ([33]; compound 1.0 µM): 103%
residual activity ([33]; compound 10.0 µM): 98%
residual activity ([34]; compound 0.1 µM): 118%
residual activity ([34]; compound 1.0 µM): 98%
residual activity ([34]; compound 10.0 µM): 100%
residual activity ([35]; compound 0.1 µM): 126%
residual activity ([35]; compound 1.0 µM): 108%
residual activity ([35]; compound 10.0 µM): 115%
residual activity ([36]; compound 0.1 µM): 122%
residual activity ([36]; compound 1.0 µM): 101%
residual activity ([36]; compound 10.0 µM): 123%
